Experimental data taken from ChEMBL document CHEMBL1201862, “PubChem BioAssay data set” (2004).
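48-hour exposure; five concentrations; linearly interpolated endpoints. At the GI50, growth is halved.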 The source made the active and inactive calls. Cut-off read from the data, not from the text of the source: active = GI50 up to about 1.1 µM and inactive = higher. *1 amine or outer side, *2 acyl side, *3 side chain or, on linkers, in order; H or OH if unused. Where a SMILES comes first, the peptide text is derived from it. [ ]: non-standard residue; d: D form. The star is where a group is joined. ξ: configuration not given here. X53 = CC(C)C[C@H](N[*:1])C1=N[C@H](C(=O)[*:2])CS1; Ile(3ξ) = CCC(C)[C@H](N)C(=O)O; Allyl(1,1-Me2) = C=CC(C)(C)*

Legend:
Assay in all cases: NCI-60 cell line screen, 48 h
[1] = test system: A498
[2] = test system: A549
[3] = test system: ACHN
[4] = test system: BT-549
[5] = test system: DU-145
[6] = test system: EKVX
[7] = test system: HT-29
[8] = test system: K562
[9] = test system: LOX IMVI
[10] = test system: MCF7
[11] = test system: MDA-N
[12] = test system: Malme-3M
[13] = test system: OVCAR-3
[14] = test system: OVCAR-4
[15] = test system: PC-3
[16] = test system: SF-295
[17] = test system: SF-539
[18] = test system: SK-MEL-5
[19] = test system: SN12C
[20] = test system: UACC-257

Measured: GI50

Fc1ccc(C(OCCN2CC3CCC(C2)N3CCCc2ccccc2)c2ccc(F)cc2)cc1
inactive: [1] 4.27 µM | [2] 8.15 µM | [3] 10.6 µM | [4] 12.4 µM | [5] 8.13 µM | [6] 4.06 µM | [7] 3.29 µM | [8] 2 µM | [9] 3.89 µM | [10] 3.39 µM | [11] 3.43 µM | [12] 3.32 µM | [13] 5.92 µM | [14] 3.94 µM | [15] 2.72 µM | [16] 3.15 µM | [17] 1.99 µM | [18] 1.82 µM | [19] 3.81 µM | [20] 3.33 µM

O=C(O)Cc1ccc([N+](=O)[O-])cc1[N+](=O)[O-]
inactive: [1] > 100 µM | [2] > 100 µM | [3] > 100 µM | [4] > 100 µM | [5] > 100 µM | [6] > 100 µM | [7] > 100 µM | [8] > 100 µM | [9] > 100 µM | [10] > 100 µM | [11] > 100 µM | [12] > 100 µM | [13] > 100 µM | [14] > 100 µM | [15] > 100 µM | [16] > 100 µM | [17] > 100 µM | [18] > 100 µM | [19] > 100 µM | [20] > 100 µM

CN1CCN(CC(=O)N2CCCn3c2nc2ccccc2c3=O)CC1
inactive: [1] > 100 µM | [2] > 100 µM | [3] > 100 µM | [4] > 100 µM | [5] > 100 µM | [6] > 100 µM | [7] > 100 µM | [8] > 100 µM | [9] > 100 µM | [10] > 100 µM | [11] > 100 µM | [12] > 100 µM | [13] > 100 µM | [14] > 100 µM | [15] > 100 µM | [16] > 100 µM | [17] > 100 µM | [18] > 100 µM | [19] > 100 µM | [20] > 100 µM

Cc1cc(-c2nc3cc(O)ccc3s2)ccc1N
inactive: [1] 24.7 µM | [2] 37 µM | [3] 22.5 µM | [4] 45.8 µM | [5] 39.8 µM | [6] 10.2 µM | [7] 21.5 µM | [8] 38.5 µM | [9] 45 µM | [10] 17.6 µM | [11] 29.4 µM | [12] 45.7 µM | [13] 23.5 µM | [14] 28 µM | [15] 30.1 µM | [16] 26 µM | [17] 25.5 µM | [18] 22.5 µM | [19] 28.8 µM | [20] 35.1 µM

C=CC(C)(C)OC[C@@H]1NC(=O)CNC(=O)[C@@H]2CCCN2C(=O)[C@H](C(C)CC)NC(=O)[C@@H]2CSC(=N2)[C@H](CC(C)C)NC1=O (stereo not given in full) (cyclo(GS(Allyl(1,1-Me2))[X53][Ile(3ξ)]P))
inactive: [1] > 100 µM | [2] 80 µM | [3] 76.6 µM | [4] 23.1 µM | [5] 77.6 µM | [6] 64.3 µM | [7] 84.7 µM | [8] 41.7 µM | [9] > 100 µM | [10] 40.6 µM | [11] > 100 µM | [12] > 100 µM | [13] 47.9 µM | [14] 22.3 µM | [15] 44.2 µM | [16] 45.2 µM | [17] > 100 µM | [18] 32.6 µM | [19] > 100 µM | [20] 38.5 µM

CC(C)N1CCN(c2ccc(OCC3COC(Cn4cncn4)(c4ccc(Cl)cc4Cl)O3)cc2)CC1 (stereo not given) [TERCONAZOLE]
inactive: [1] 14 µM | [2] > 35.8 µM | [3] 20.6 µM | [4] 14.4 µM | [5] 16.3 µM | [6] 15.1 µM | [7] 3.62 µM | [8] 3.47 µM | [9] 12 µM | [10] 13.2 µM | [11] 4.86 µM | [12] 7.85 µM | [13] 13.5 µM | [14] 17.2 µM | [15] 14.6 µM | [16] 12.8 µM | [17] 13.3 µM | [18] 2.18 µM | [19] 15.8 µM | [20] 1.89 µM
